# Source: ChEMBL document CHEMBL4819083, “Synthesis of pyranochalcone derivatives and their inhibitory effect on NF-κB activation” (Bioorg Med Chem Lett, 2021)
# Active and inactive are the calls of the source. The calls are words filed in the database; no cut-off is given here.
# What was measured:
# [1] = system: RAW264.7; experiment: Inhibition of LPS-induced NO expression in mouse RAW264.7 cells at 2 to 20 uM preincubated for 2 hr followed by LPS stimulation and measured after 24 hrs; assay type: functional, cell-based; conditions: dose 2-20 µM
# [2] = system: RAW264.7; experiment: Inhibition of LPS-induced IL-1beta mRNA expression in mouse RAW264.7 cells at 2 to 20 uM preincubated for 2 hr followed by LPS stimulation and measured after 6 hrs by qRT-PCR; assay type: functional, cell-based; conditions: dose 2-20 µM
# [3] = system: RAW264.7; experiment: Inhibition of LPS-induced pro IL-1beta expression in mouse RAW264.7 cells at 2 to 20 uM preincubated for 2 hr followed by LPS stimulation and measured after 6 hrs by Western blot analysis; assay type: functional, cell-based; conditions: dose 2-20 µM
# [4] = system: RAW264.7; experiment: Inhibition of LPS-induced iNOS expression in mouse RAW264.7 cells at 2 to 20 uM preincubated for 2 hr followed by LPS stimulation and measured after 6 hrs by Western blot analysis; assay type: functional, cell-based; conditions: dose 2-20 µM
# [5] = system: BMDM; experiment: Inhibition of LPS-induced IL-1beta secretion in mouse BMDM cells at 2 to 20 uM preincubated for 2 hr followed by LPS stimulation and measured after 4 hrs; assay type: functional, cell-based; conditions: dose 2-20 µM
# [6] = system: BMDM; experiment: Inhibition of LPS-induced IL-1beta mRNA expression in mouse BMDM cells at 5 to 10 uM preincubated for 2 hr followed by LPS stimulation and measured after 6 hrs by qRT-PCR; assay type: functional, cell-based; conditions: dose 5-10 µM
# [7] = molecular target: T1, Inhibitor of nuclear factor kappa-B kinase subunit alpha (Mus musculus) (UniProt Q60680); experiment: Inhibition of IKKalpha in mouse RAW264.7 cells assessed as inhibition of LPS-induced IKK-alpha phosphorylation level pre-treated for 2 hrs followed by LPS stimulation and measured after 6 hrs by Western blot analysis; assay type: cell-based
# T1 sequence (whole entry): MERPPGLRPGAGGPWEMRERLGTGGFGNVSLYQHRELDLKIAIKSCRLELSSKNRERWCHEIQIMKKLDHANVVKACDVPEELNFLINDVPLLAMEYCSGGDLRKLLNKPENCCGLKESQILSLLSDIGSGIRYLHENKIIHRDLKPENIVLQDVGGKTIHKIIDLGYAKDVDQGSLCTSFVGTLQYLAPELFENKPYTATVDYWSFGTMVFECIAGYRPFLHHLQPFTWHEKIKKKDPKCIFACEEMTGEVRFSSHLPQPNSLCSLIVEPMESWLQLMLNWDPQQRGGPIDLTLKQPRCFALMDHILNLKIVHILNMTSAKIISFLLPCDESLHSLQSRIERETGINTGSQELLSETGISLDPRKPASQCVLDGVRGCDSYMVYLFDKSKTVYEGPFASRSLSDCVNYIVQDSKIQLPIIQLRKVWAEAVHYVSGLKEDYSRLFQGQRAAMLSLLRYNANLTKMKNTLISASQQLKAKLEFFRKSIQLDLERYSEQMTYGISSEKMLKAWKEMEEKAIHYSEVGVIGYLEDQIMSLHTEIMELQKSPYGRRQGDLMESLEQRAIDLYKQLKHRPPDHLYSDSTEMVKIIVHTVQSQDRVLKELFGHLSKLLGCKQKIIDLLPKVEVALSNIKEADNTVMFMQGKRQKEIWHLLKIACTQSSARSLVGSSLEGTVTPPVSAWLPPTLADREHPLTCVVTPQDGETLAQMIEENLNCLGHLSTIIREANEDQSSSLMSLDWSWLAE
# [8] = system: RAW264.7; experiment: Inhibition of NF-kappaB in mouse RAW264.7 cells assessed as reduction in LPS-induced p65 phosphorylation pre-treated for 2 hrs followed by LPS stimulation and measured after 6 hrs by Western blot analysis; assay type: cell-based
# [9] = system: RAW264.7; experiment: Inhibition of MAPK signalling activation in mouse RAW264.7 cells assessed as reduction in LPS-induced p38 phosphorylation pre-treated for 2 hrs followed by LPS stimulation and measured after 6 hrs by Western blot analysis; assay type: cell-based
# [10] = system: RAW264.7; experiment: Cytotoxicity against mouse RAW264.7 cells at > 50 uM; assay type: cell-based
smiles,measurement,setting,value
C=CC(=O)Oc1ccc(/C=C/C(=O)c2c(OC)cc3c(c2OC(=O)C=C)CCC(C)(C)O3)cc1,inhibition,[1],Active
same,inhibition,[2],Active
same,inhibition,[3],Active
same,inhibition,[4],Active
same,inhibition,[5],Active
same,inhibition,[6],Active
same,inhibition,[7],Active
same,inhibition,[8],Active
same,inhibition,[9],Active
same,Activity,[10],Non-Toxic
